Values joined by “and” are separate entries in the source; they are usually repeats but may differ in a detail not shown here. Identical values can stand only once.
Experiments:
normal human blood cells = assay: MTT assay, normal human blood cells, 72 h; type: cell-based; details: Normal Blood Cell
Description: Leukemia cell strains: Sup-B15 (Ph+acute lymphoblastic leukemia), CEM (acute lymphoblastic leukemia, ALL), and Molt-4 (acute lymphoblastic leukemia, ALL). Normal blood cell samples: peripheral blood from healthy volunteers. • Primary reagent: 14-D-Valine-TPL of the invention. Primary instruments: cell incubator and microplate reader. (2) Experimental Method
(§1) 5000 well-grown leukemia cells or normal human blood cells were taken and seeded into wells of a 96-well cell culture plate. The medium was 1640 cell medium containing 10% fetal bovine serum. 14-D-Valine-TPL with different concentrations was added, and after being uniformly mixed, the plate was placed in a carbon dioxide (5% CO2) cell incubator, and incubated at 37° C. for 72 hours. The concentration of live cells was then determined using the MTT assay. In this experiment, the cell viability in the control group (without the compound treatment) was set to be 100%, and the cell viability (%) after the action of the compound the half maximal growth inhibitory concentration of leukemia cells at 72 hours (IC50 value at 72 hours) and the therapeutic window index were calculated. Therapeutic window index=IC50 value of normal blood cells/IC50 value of leukemia cells. […] A larger therapeutic window indicates a better selectivity of the compound for tumor cells.

THP-1 = assay: MTT growth inhibition, THP-1 cells, 72 h; type: cell-based; details: Homo sapiens, THP-1, MTT
Description: 5000 well-grown leukemia cells were taken and seeded into wells of a 96-well cell culture plate. The medium was 1640 cell medium containing 10% fetal bovine serum. 14-D-Valine-TPL with different concentrations was added, and after being uniformly mixed, the plate was placed in a carbon dioxide (5% CO2) cell incubator, and incubated at 37° C. for 72 hours. The concentration of live cells was then determined using the MTT assay. In this experiment, the cell viability in the control group (without the compound treatment) was set to be 100%, and the cell viability (%) after the action of the compound and the half maximal growth inhibitory concentration of leukemia cells at 72 hours (IC50 value at 72 hours) were calculated.

[1] = test system: human acute monocytic leukemia THP-1 cells; assay: THP-1 subcutaneous xenograft in NOD/SCID mice; type: in vivo; details: for Tumor weight: THP-1, individual mice, end of experiment
Description: 7-week old female NOD/SCID mice were taken and inoculated subcutaneously with 1×10^7 cells (0.2 ml) per mouse in axilla, with human acute myelogenous leukemia KG-1a cells on the left and human acute monocytic leukemia THP-1 cells on the right. When tumors grew to a tumor size of around 0.5 cm, the mice were randomized into groups with 3 mice each. An equivalent amount of PBS was used for the control group, and the 14-D-Valine-TPL group was divided into two groups with 0.2 mg/kg body weight and 0.4 mg/kg body weight: intragastric administration 2 times a day (one at 8 a.m. and one at 4 p.m.) for consecutive 14 days of treatment. An observation was made for total 30 days, during which the conditions of the mice such as tumor size, weight, activity, diet, and the like were measured. At the end of the experiment, the mice were sacrificed, tumor tissues were taken and the tumors were weighed, and major organs and tissues of the mice such as liver, spleen, heart, lung, large intestine, small intestine, and the like were examined.

[2] = test system: human leukemia cells (Jurkat, CEM, Molt-4, Sup-B15); assay: Therapeutic window over 4 types of human leukemia cells (MTT); type: cell-based; details: for 4 different types of human leukemia cells
Description: as §1

CC(C)[C@@H](N)C(=O)O[C@@H]1[C@@]2(C(C)C)O[C@H]2[C@@H]2O[C@]23[C@]12O[C@H]2C[C@H]1C2=C(CC[C@@]13C)C(=O)OC2 [14-D-Valine-TPL, 14-Dextro-Valine-Triptolide]
IC50 (normal human blood cells; Homo sapiens, 72 h, Overall, MTT): 201 nM
IC50 (normal human blood cells; Homo sapiens, 72 h, individual healthy volunteers No1-No9, MTT): 203 nM
IC50 (normal human blood cells; individual healthy volunteers No1-No9, MTT): 199 nM and 206 nM and 200 nM and 214 nM and 190 nM and 204 nM and 185 nM and 211 nM
IC50 (THP-1): 16 nM
Tumor weight ([1]; trifluoroacetate 0.2 mg/kg intragastric 2 times a day, 14 days, listed as DV): 0 g (3×) and 0.21 g and 0.06 g and 0.28 g
Tumor weight ([1]; trifluoroacetate 0.4 mg/kg intragastric 2 times a day, 14 days): 0 g
growth of THP-1 in mice in vivo (in words) ([1]; THP-1 xenograft, intragastric 2 times a day, 14 days, dose-dependent effect): significantly inhibit the growth
regression of THP-1 xenograft tumors ([1]; dose of 0.4 mg per kilogram of the body weight): complete regression
therapeutic window indices [2]: 5.54-18.58

From patent publication US10238623B2, “C14-hydroxyl esterified amino acid derivative of triptolide, and preparation method and use thereof” (HANGZHOU WEBEN PHARMACEUTICALS INC, priority 2015, dated 2019)
